This is an account of results in US8519110B2, “mRNA cap analogs” (Board of Supervisors of Louisiana State University And …, priority 2008, dated 2013).

Structures are written as SMILES.

One assay has as its target T1, Human DcpS (Homo sapiens, UniProt Q96C86).
T1 construct: made in house; host or cells: Escherichia coli
T1 sequence (Q96C86 1-337): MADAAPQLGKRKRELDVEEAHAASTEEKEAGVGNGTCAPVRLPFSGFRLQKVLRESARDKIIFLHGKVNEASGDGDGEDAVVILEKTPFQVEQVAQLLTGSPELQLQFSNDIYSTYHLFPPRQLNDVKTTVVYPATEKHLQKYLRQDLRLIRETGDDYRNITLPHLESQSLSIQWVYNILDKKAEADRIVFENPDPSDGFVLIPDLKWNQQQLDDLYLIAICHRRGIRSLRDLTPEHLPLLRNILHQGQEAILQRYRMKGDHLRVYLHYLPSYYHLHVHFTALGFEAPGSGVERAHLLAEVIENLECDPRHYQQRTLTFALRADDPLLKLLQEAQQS
The experiment in a line: Assay of susceptibility to DcpS (RP HPLC). It is filed as biochemical. Here is the method: Human DcpS was expressed in Escherichia coli as described in L. Cohen et al., “Nematode m^7GpppG and m3^2,2,7GpppG decapping: activities in Ascaris embryos and characterization of C. elegans scavenger DcpS,” RNA, vol. 10, pp. 1609-1624 (2004). A 15 μM solution of the protein in 20 mM Tris buffer, pH 7.5, containing 50 mM KCl, 0.2 mM EDTA, 1 mM DTT, 0.5 mM PMSF, and 20% glycerol was stored at −80° C. until used. Enzymatic reactions were carried out at 30° C. in 500 μl of 50 mM Tris-HCl, pH 7.9, containing 20 mM MgCl2 and 60 mM (NH4)2SO4. A 40 μM solution of the selected cap analog was treated with 5.0 μl of DcpS for 120 min. At times of 10, 30, 60, and 120 min, a 100-μl sample was collected from the reaction mixture and deactivated by incubation at 90° C. for 2 min. Samples were analyzed without further treatment by analytical RP HPLC with a linear gradient of methanol in 0.1 M KH2PO4, pH 6.0, from 0-50% over 15 min.

Assay [1] relates to rabbit reticulocyte lysate system. The assay is described as follows: In vitro translation efficiency of capped luciferase mRNA with 31-base poly(A) tail, method II transcripts. As to conditions: for Translation efficiency in comparison to m^7GpppG-LUC-(A)31 mRNA, Experiment No. 4: experiment 4; for Translation efficiency in comparison to m^7GpppG-LUC-(A)31 mRNA, Experiment No. 5: experiment 5; for Translation efficiency in comparison to m^7GpppG-LUC-(A)31 mRNA, Mean: mean of experiments. It is filed as biochemical. The protocol:
Capped, polyadenylated luciferase mRNAs were synthesized in vitro by PCR from a dsDNA template that contained the SP6 promoter, the 5′-UTR sequence of rabbit β-globin mRNA, the entire firefly luciferase coding region, and 31 adenosine residues. A typical transcription reaction mixture (40 μl) contained SP6 transcription buffer (Fermentas), 0.7 ug of DNA template, 1 U/μl RiboLock Ribonuclease Inhibitor (Fermentas), 0.5 mM each of ATP, CTP, and UTP, 0.1 mM GTP, and 0.5 mM dinucleotide cap analog. The reaction mixture was incubated at 37° C. for 5 min before addition of SP6 RNA polymerase (Fermentas) to a final concentration of 1 U/μl, and incubation then continued for 45 min at 37° C. The reaction mixture was treated with DNase as in Method I. RNA transcripts were purified with NucAway Spin Columns (Ambion). The integrity of transcripts and quantitation was performed as in Method I.
(§1) A micrococcal nuclease-treated rabbit reticulocyte lysate system (Flexi Rabbit Reticulocyte Lysate System, Promega) was used for in vitro translation. Translation reactions were performed in 10 μl for 60 min at 30° C. A typical reaction mixture contained 40% reticulocyte lysate, the 20 “standard” amino acids (0.01 mM each), MgCl2 (1.2 mM), potassium acetate (170 mM), and mRNA (five different concentrations of each transcript, ranging from 0.25 to 4 μg/ml). Luciferase activity was measured in a luminometer (Glomax, Promega). Linear regression was used to fit the data points (luciferase activity versus concentration of mRNA transcript), and translational efficiency was defined as the slope of this line. The relative translational efficiencies of the test mRNAs were compared to that of m^7GpppG-capped luciferase mRNA, the latter being defined as 1.0.

The target of the next assay is eIF4E (Mus musculus, UniProt P63073). The assay is described as follows: Binding affinity of cap analogs to eIF4E by fluorescence titration. Conditions: equilibrium association constant; for Cap analog/eIF4E affinity (KAS): 20 °C, pH 7.2, ionic strength 150 mM. Here is the method:
Fluorescence titration measurements were carried out on an LS-50B or LS-55 spectrofluorometer (Perkin Elmer Co.) at 20.0±0.2° C. in 50 mM HEPES/KOH (pH 7.2), 0.5 mM EDTA, and 1 mM DTT, with ionic strength adjusted to 150 mM by addition of KCl. Various cap analogue solutions, of increasing concentration, were added in 1 μl aliquots to 1.4 ml of 0.1 or 0.2 μM protein solutions. Fluorescence intensities were measured with excitation at 280 nm or 295 nm with 2.2 nm bandwidth, and detection at 337 nm with 4 nm bandwidth and a 290-nm cut-off filter. The data were corrected for sample dilution and inner filter effects. Equilibrium association constants (Kas) were determined by fitting the theoretical dependence of fluorescence intensity on cap analog concentration to the experimental data, as otherwise described in A. Niedźwiecka et al., “Biophysical studies of eIF4E cap-binding protein: recognition of mRNA 5′ cap structure and synthetic fragments of eIF4G and 4E-BP1 proteins,” J. Mol. Biol., vol. 312, pp. 615-635 (2002). The concentration of protein was allowed to be a free parameter in the equilibrium equation, to determine the amount of “active” protein. The final Kas was calculated as a weighted average of three to ten independent titrations, with the weights taken as the reciprocals of the squares of the numerical standard deviations. Numerical nonlinear least-square regression analysis was performed using ORGIN 6.0 (Microcal Software Inc., USA).
The binding affinities of eukaryotic eIF4E for various cap analogs were determined by fluorescence quenching. This biophysical test allows one to predict the potential efficacy of cap analogs in translation. Those having higher affinities for eIF4E than the unmodified cap analog (m^7GpppG) are expected to be better recognized by the translational machinery, leading to higher translational efficiencies. They also are expected to compete more effectively with unmodified mRNA when free cap dinucleotides are used to inhibit translation. See generally E. Grudzien-Nogalska et al., “Synthesis of anti-reverse cap analogs (ARCAs) and their applications in mRNA translation and stability,” Methods Enzymol., vol. 431, pp. 203-227 (2007).

The subject of assay [2] is rabbit reticulocyte lysate system. The assay is described as follows: In vitro translation efficiency of capped luciferase mRNA, method I transcripts. It is filed as biochemical. Here is the method: A DNA template for in vitro transcription was synthesized by PCR from the plasmid SP6p-5′UTR β-globin-LUCiferase. The template contained the SP6 promoter followed by the 5′-UTR sequence of rabbit β-globin mRNA and the entire firefly luciferase mRNA coding region. A typical in vitro transcription reaction mixture (50 μl) contained SP6 transcription buffer (Fermentas, cat. no. EP0131), 2 μg of DNA template, 2 U/μl RiboLock Ribonuclease Inhibitor (Fermentas), 2 mM each of ATP, CTP, and UTP, 0.1 mM GTP, and 1 mM dinucleotide cap analog. The reaction mixture was incubated at 37° C. for 5 min before the addition of SP6 RNA polymerase (Fermentas) to a final concentration of 2 U/μl. After 30 min of incubation at 37° C., GTP was added to a final concentration of 1 mM, and the reaction continued for an additional 90 min. The reaction mixtures were then treated with 1 U of DNase RQ1 (RNAse-free, Promega) per μg of template DNA in transcription buffer at 37° C. for 20 min. RNA transcripts were purified on DEPC-treated Sephadex G-50 spin columns (Pharmacia). The integrity of transcripts was confirmed by electrophoresis on a non-denaturating, 1% agarose gel. Concentrations were determined spectrophotometrically. The transcripts were stored at −80° C. until used.
as §1

[3] abbreviates: 40 μM cap analog, 30° C., up to 120 min.

Sequence of eIF4E (P63073 28-217 limits assumed): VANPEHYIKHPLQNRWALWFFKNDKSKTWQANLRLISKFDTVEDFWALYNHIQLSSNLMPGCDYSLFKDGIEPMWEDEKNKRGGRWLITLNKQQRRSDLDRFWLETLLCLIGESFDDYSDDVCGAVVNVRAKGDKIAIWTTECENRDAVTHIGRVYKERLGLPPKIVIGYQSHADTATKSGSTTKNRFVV

Turning to `[BH3-]P(=O)(OP(=O)(O)OCC1OC(n2cnc3c(=O)[nH]c(N)nc32)C(O)C1O)OP(=O)(O)OCC1OC(n2c[n+](C)c3c(=O)[nH]c(N)nc32)C(OC)C1O` (single isomer, unassigned) [m2^7,2′-OGppBH3pG (D2), m2^7,2′-OGppBH3pG], the “Susceptibility to DcpS” value on Human DcpS (setting [3]) is “resistant”. In assay [1], the “Translation efficiency in comparison to m^7GpppG-LUC-(A)31 mRNA, Experiment No. 4” value is 3.16; the “Translation efficiency in comparison to m^7GpppG-LUC-(A)31 mRNA, Experiment No. 5” value was found to be 3.53; the “Translation efficiency in comparison to m^7GpppG-LUC-(A)31 mRNA, Mean” value came out at 3.35. Moreover, the “Cap analog/eIF4E affinity (KAS)” value on eIF4E worked out at 13.2 ± 0.2 μM^−1.
For `[BH3-]P(=O)(OC[C@H]1O[C@@H](n2cnc3c(=O)[nH]c(N)nc32)[C@H](O)[C@@H]1O)OP(=O)(O)OP(=O)(O)OC[C@H]1O[C@@H](n2c[n+](C)c3c(=O)[nH]c(N)nc32)[C@H](OC)[C@@H]1O` (single isomer, unassigned) [m2^7,2′-OGpppBH3G (D1), m2^7,2′-OGpppBH3G] the same measures were “hydrolyzed”, 2.38, 3.28, 2.83 and 15.3 ± 0.2 μM^−1.
For `[BH3-]P(=O)(OC[C@H]1O[C@@H](n2cnc3c(=O)[nH]c(N)nc32)[C@H](O)[C@@H]1O)OP(=O)(O)OP(=O)(O)OC[C@H]1O[C@@H](n2c[n+](C)c3c(=O)[nH]c(N)nc32)[C@H](OC)[C@@H]1O` (single isomer, unassigned) [m2^7,2′-OGpppBH3G (D2), m2^7,2′-OGpppBH3G] the same measures were “hydrolyzed”, 1.76, 1.92, 1.84 and 14.4 ± 0.2 μM^−1.
On to `CO[C@H]1[C@@H](O)[C@H]([n+]2cn(C)c3c(=O)[nH]c(N)nc32)O[C@@H]1COP(=O)([O-])OP(=O)(O)OP(=O)(O)OC[C@H]1O[C@@H](n2cnc3c(=O)[nH]c(N)nc32)[C@H](O)[C@@H]1O` [m2^7,3′-OGpppG, 7-methyl(3′-O-methyl)GpppG, reference compound], for which the “Susceptibility to DcpS” value on Human DcpS (setting [3]) is listed as “hydrolyzed”. For the same compound, at Human DcpS (Table 3), the “Susceptibility to DcpS” value is recorded as “hydrolyzed”. The “Translation efficiency in comparison with m^7GpppG-LUC mRNA, Experiment No. 1” value in assay [2] (experiment 1) is 2.53. For the same compound, the “Translation efficiency in comparison with m^7GpppG-LUC mRNA, Experiment No. 2” value in assay [2] (experiment 2) came to 2.92. Further, the “Translation efficiency in comparison with m^7GpppG-LUC mRNA, Experiment No. 3” value in assay [2] (experiment 3) is reported as 2.96. Moreover, in assay [2] (experiment 4), the “Translation efficiency in comparison with m^7GpppG-LUC mRNA, Experiment No. 4” value was 2.50. The “Translation efficiency in comparison with m^7GpppG-LUC mRNA, Mean” value in assay [2] (mean of experiments) is reported as 2.73. Moreover, in assay [2] (relative to m^7GpppG-capped luciferase mRNA = 1.0), the “In vitro translational efficiency, method I” value came to 2.73 ± 0.25. Besides, in assay [1] (Table 3, relative to m^7GpppG-capped mRNA = 1.0), the “In vitro translational efficiency (method II)” value was found to be 1.82 ± 0.20. Further, in assay [1] (experiment 1), the “Translation efficiency in comparison to m^7GpppG-LUC-(A)31 mRNA, Experiment No. 1” value is given as 1.98. Besides, the “Translation efficiency in comparison to m^7GpppG-LUC-(A)31 mRNA, Experiment No. 2” value in assay [1] (experiment 2) was 1.66. In assay [1] (experiment 3), the “Translation efficiency in comparison to m^7GpppG-LUC-(A)31 mRNA, Experiment No. 3” value worked out at 1.61. In assay [1], the “Translation efficiency in comparison to m^7GpppG-LUC-(A)31 mRNA, Experiment No. 4” value was 1.77; the “Translation efficiency in comparison to m^7GpppG-LUC-(A)31 mRNA, Experiment No. 5” value was 2.08; the “Translation efficiency in comparison to m^7GpppG-LUC-(A)31 mRNA, Mean” value stood at 1.82. The “Cap analog-eIF4E affinity (KAS)” value on eIF4E (Table 3) stood at 10.2 ± 0.3 μM^−1. Besides, the “Cap analog/eIF4E affinity (KAS)” value at eIF4E was found to be 10.2 ± 0.3 μM^−1.
